Assays:
[1] = molecular target: cGMP-inhibited 3',5'-cyclic phosphodiesterase 3A (Homo sapiens, UniProt Q14432); assay type: functional
D(3) dopamine receptor = D(3) dopamine receptor (Homo sapiens, UniProt P35462)
[2] = molecular target: T1, Equilibrative nucleoside transporter 1 (Homo sapiens, UniProt Q99808)
T1 sequence (Q99808 whole entry): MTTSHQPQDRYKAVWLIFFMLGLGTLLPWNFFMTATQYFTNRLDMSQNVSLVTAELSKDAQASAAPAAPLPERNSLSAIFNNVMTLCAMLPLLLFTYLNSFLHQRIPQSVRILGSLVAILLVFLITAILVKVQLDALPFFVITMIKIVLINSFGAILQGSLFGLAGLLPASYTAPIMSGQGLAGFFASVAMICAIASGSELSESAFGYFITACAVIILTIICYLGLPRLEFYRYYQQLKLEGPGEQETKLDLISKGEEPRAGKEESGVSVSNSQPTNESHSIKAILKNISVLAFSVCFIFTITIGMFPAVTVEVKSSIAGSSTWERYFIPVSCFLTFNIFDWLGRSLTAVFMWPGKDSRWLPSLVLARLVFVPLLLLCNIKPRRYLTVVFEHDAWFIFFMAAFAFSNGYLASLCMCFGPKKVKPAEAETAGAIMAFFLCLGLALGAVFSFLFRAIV

[3] = molecular target: Growth hormone secretagogue receptor type 1 (Homo sapiens, UniProt Q92847)
Chain of Growth hormone secretagogue receptor type 1 (Q92847 whole entry): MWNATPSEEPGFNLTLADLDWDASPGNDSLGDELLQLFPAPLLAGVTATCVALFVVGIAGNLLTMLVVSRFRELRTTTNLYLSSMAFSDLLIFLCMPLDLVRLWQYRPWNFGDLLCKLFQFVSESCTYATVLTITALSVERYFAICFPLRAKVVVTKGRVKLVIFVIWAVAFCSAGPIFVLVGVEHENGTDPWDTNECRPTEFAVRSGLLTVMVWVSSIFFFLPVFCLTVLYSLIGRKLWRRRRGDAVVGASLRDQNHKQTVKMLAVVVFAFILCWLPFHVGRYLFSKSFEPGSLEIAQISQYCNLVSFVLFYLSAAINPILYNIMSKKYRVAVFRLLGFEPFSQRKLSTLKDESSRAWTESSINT

Adenosine receptor A2a = Adenosine receptor A2a (Homo sapiens, UniProt P29274)
Chain of Adenosine receptor A2a (P29274 whole entry): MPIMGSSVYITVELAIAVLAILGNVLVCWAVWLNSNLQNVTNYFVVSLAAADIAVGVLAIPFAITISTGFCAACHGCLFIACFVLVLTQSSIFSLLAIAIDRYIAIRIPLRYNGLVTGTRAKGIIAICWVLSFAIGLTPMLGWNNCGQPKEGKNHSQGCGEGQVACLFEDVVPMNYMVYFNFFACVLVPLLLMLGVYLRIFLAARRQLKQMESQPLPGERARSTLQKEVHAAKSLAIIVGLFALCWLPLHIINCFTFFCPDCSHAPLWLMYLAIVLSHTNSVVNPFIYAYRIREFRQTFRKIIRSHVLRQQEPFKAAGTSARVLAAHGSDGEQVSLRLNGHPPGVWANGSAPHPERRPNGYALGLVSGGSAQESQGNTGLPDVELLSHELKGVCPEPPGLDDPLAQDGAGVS

[4] = molecular target: T2, Neuropeptide Y receptor type 1 (Homo sapiens, UniProt P25929)
T2 sequence (P25929 whole entry): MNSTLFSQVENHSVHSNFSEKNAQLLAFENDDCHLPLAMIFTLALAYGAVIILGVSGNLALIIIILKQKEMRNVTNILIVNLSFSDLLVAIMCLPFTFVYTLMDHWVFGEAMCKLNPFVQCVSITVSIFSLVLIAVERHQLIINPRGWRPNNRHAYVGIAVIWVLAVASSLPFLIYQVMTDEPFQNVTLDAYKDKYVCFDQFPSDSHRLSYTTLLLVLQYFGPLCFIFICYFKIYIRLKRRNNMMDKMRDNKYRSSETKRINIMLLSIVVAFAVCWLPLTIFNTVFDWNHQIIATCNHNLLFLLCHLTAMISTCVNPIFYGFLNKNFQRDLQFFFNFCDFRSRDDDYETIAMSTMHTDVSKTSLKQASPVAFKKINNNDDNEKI

[5] = molecular target: 5-hydroxytryptamine receptor 2A (Homo sapiens, UniProt P28223); assay type: functional, cell-based
Chain of 5-hydroxytryptamine receptor 2A (P28223 whole entry): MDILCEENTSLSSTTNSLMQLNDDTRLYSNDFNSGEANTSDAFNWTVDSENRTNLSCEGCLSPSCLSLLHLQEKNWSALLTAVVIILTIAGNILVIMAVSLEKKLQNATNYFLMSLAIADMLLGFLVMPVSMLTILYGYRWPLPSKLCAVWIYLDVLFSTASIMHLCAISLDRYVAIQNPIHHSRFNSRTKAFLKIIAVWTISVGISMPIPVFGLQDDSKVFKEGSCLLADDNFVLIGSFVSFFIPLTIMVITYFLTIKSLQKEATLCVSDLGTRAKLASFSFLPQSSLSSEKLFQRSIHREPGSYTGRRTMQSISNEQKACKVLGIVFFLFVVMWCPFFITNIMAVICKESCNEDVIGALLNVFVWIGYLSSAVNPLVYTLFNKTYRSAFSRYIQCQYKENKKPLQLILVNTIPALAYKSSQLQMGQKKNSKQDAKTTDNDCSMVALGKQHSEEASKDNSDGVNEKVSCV

[6] = molecular target: T3, Prostaglandin G/H synthase 1 (Rattus norvegicus, UniProt Q63921); assay type: functional
T3 sequence (Q63921 whole entry): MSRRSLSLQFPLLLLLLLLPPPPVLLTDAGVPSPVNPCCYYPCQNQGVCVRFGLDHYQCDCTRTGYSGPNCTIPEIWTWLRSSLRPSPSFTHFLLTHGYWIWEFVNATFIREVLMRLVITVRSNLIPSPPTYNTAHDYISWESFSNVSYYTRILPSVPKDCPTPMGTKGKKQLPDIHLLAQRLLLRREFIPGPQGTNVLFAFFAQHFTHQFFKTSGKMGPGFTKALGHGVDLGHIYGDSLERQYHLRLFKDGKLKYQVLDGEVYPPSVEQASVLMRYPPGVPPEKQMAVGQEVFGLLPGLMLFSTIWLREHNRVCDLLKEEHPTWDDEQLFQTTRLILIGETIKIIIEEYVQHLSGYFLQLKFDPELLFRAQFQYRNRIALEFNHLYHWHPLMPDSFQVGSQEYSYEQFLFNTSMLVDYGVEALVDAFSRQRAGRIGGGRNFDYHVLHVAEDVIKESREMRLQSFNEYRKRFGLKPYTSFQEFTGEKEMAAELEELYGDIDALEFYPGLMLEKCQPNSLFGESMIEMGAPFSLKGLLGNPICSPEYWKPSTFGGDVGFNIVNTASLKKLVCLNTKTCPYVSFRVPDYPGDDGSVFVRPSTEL

[7] = molecular target: T4, Amine oxidase [flavin-containing] A (Homo sapiens, UniProt P21397); assay type: functional
T4 sequence (P21397 whole entry): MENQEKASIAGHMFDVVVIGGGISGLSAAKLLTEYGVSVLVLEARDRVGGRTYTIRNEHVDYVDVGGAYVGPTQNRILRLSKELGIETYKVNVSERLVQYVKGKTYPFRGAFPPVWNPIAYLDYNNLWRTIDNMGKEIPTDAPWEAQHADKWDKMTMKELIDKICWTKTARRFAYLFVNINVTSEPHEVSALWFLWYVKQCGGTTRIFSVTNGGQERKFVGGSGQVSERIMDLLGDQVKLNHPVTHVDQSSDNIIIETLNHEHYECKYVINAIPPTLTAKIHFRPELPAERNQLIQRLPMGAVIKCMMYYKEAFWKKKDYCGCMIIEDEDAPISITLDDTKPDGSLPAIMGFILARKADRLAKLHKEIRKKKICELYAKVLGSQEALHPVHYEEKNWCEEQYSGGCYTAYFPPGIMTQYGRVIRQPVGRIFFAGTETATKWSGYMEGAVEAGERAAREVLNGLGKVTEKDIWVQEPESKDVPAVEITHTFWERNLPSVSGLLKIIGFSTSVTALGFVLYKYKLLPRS

Vasopressin V2 receptor = Vasopressin V2 receptor (Homo sapiens, UniProt P30518)
Chain of Vasopressin V2 receptor (P30518 whole entry): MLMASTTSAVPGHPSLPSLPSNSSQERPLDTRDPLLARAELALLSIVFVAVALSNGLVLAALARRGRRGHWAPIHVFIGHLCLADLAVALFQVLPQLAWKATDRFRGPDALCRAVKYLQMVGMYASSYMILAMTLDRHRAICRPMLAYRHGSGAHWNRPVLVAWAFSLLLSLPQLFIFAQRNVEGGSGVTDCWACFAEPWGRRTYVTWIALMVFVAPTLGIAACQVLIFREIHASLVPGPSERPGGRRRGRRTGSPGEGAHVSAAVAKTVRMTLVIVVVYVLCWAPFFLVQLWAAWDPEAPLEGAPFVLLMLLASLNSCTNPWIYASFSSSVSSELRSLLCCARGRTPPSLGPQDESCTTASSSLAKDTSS

[8] = molecular target: Neuronal acetylcholine receptor subunit alpha-4 (Homo sapiens, UniProt P43681)
Chain of Neuronal acetylcholine receptor subunit alpha-4 (P43681 whole entry): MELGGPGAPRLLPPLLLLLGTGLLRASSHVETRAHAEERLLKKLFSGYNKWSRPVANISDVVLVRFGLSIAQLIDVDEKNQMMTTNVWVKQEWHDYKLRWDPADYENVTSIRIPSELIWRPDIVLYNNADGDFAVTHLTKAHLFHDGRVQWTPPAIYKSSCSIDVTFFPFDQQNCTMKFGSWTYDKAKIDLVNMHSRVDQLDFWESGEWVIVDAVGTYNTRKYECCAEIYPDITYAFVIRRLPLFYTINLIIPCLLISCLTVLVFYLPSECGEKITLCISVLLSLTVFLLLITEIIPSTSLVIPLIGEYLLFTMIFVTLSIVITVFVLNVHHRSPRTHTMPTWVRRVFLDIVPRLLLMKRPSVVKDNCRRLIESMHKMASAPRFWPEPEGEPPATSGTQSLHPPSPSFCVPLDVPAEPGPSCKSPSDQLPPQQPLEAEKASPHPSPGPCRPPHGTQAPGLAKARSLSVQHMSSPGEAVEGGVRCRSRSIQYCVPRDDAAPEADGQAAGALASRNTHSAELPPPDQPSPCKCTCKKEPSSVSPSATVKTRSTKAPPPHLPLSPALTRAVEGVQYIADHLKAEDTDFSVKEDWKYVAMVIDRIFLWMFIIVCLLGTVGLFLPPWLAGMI
Further: assay procedure not described here.

Chain of D(3) dopamine receptor (P35462 whole entry): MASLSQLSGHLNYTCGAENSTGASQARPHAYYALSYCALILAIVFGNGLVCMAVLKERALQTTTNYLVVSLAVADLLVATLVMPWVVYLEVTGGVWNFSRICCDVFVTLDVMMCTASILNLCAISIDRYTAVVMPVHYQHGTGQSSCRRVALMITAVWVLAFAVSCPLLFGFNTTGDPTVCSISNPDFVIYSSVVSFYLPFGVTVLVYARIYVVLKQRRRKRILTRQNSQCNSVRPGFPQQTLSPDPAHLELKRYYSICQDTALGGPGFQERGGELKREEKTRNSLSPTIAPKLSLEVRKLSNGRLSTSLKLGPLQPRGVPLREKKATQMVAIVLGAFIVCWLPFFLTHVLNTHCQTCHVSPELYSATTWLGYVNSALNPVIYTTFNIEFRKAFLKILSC
Chain of cGMP-inhibited 3',5'-cyclic phosphodiesterase 3A (Q14432 whole entry): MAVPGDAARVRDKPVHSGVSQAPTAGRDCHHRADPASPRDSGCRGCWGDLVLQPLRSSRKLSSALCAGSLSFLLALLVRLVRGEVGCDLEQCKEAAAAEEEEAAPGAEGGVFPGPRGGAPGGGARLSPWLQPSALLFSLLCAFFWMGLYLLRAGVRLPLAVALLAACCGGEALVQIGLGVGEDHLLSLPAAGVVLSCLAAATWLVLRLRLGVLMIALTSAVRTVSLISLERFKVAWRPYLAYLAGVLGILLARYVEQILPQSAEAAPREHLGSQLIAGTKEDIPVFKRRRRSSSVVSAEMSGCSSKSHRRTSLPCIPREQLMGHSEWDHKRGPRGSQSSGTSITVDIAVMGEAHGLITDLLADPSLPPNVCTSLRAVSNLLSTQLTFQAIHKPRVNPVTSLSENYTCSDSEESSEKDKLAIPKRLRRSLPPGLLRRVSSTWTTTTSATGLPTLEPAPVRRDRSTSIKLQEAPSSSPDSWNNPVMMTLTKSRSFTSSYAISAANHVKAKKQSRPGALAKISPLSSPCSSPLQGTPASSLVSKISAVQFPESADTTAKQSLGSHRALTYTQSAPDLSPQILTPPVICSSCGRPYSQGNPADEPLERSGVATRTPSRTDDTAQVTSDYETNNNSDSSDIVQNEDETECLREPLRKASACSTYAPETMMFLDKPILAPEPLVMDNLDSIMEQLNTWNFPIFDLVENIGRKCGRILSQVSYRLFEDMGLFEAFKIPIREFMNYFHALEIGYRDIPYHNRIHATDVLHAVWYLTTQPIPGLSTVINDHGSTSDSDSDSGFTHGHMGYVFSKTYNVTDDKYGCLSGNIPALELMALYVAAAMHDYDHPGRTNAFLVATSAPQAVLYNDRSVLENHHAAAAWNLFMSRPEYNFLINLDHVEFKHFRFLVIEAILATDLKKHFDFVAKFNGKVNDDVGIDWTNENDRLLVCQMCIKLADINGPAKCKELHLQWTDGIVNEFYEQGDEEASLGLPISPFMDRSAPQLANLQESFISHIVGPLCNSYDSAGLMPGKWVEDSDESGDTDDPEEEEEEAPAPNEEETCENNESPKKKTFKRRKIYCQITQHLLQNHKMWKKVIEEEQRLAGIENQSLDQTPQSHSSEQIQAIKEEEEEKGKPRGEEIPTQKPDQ

Compound	AC50 [1] [µM]	AC50 (D(3) dopamine receptor) [µM]	AC50 [2] [µM]	AC50 [3] [µM]	AC50 (Adenosine receptor A2a) [µM]	AC50 [4] [µM]	AC50 [5] [µM]	AC50 [6] [µM]	AC50 [7] [µM]	AC50 (Vasopressin V2 receptor) [µM]	AC50 [8] [µM]
CN1CC(=O)N2[C@H](c3ccc4c(c3)OCO4)c3[nH]c4ccccc4c3C[C@@H]2C1=O	> 30	> 30	> 30	> 30	> 30	> 30	> 30	> 30	> 10	> 30	> 10
O=C(C[S+]([O-])C(c1ccccc1)c1ccccc1)NO (stereo not drawn)	> 10	> 30	> 30	> 30	> 30	> 30	> 30	> 30	> 30	> 30	> 30
C=C1CC[C@@]2(O)[C@H]3Cc4ccc(O)c5c4[C@@]2(CCN3CC2CC2)[C@H]1O5	> 30	> 30	> 30	> 30	> 30	> 30	> 30	> 30	> 30	> 30	> 30
Nc1ncnc2c1ncn2[C@@H]1O[C@H](COP(=O)(O)O)[C@@H](O)[C@H]1O [ADENOSINE PHOSPHATE]	16	> 30	–	> 30	> 30	> 30	> 30	> 30	> 30	> 30	> 30
CCCC(CCC)C(=O)O[C@H]1C[C@H]2CC[C@@H](C1)[N+]2(C)C [ANISOTROPINE]	> 30	> 30	–	> 30	> 30	> 30	> 30	> 30	> 30	> 30	26
CN1CCc2cccc3c2[C@H]1Cc1ccc(O)c(O)c1-3 [APOMORPHINE]	> 30	–	> 30	> 30	> 30	> 20	1.79	20.4	> 10	> 30	> 10
CCC(C(=O)O)c1ccc(CC(C)C)cc1 (stereo not drawn) [BUTIBUFEN]	> 30	> 30	> 30	> 30	> 30	> 30	> 30	–	> 30	> 30	> 30
O=C(O)Cc1cn(-c2ccccc2)nc1-c1ccc(Cl)cc1 [LONAZOLAC]	> 30	> 30	> 30	> 30	> 30	> 30	> 30	19	–	> 30	> 30
C[C@]12CCC(=O)C=C1CC[C@@H]1[C@@H]2CC[C@@]2(C)[C@H]1CC[C@]2(C)O [METHYLTESTOSTERONE]	> 30	> 30	> 30	> 30	> 30	> 30	–	> 30	> 30	> 30	> 30
NC(=O)C[S+]([O-])C(c1ccccc1)c1ccccc1 (stereo not drawn) [MODAFINIL]	> 30	> 10	> 30	> 30	> 30	> 30	–	> 30	> 10	> 30	> 10
CCN(CC)CCOC(=O)c1ccc(N)cc1 [PROCAINE]	> 10	> 30	> 30	> 30	> 30	> 30	–	> 30	16	> 30	> 10
CCCOc1ccc(C(=O)OCCN(CC)CC)cc1N [PROPARACAINE]	> 30	> 30	> 30	> 30	> 30	> 30	–	0.75	11	> 30	> 30
C#CCN[C@@H]1CCc2ccccc21 [RASAGILINE]	> 30	> 30	> 30	> 30	> 30	> 30	> 30	> 30	–	> 30	> 30
Nc1nc2ccc(OC(F)(F)F)cc2s1 [RILUZOLE]	> 30	> 30	> 30	> 30	> 30	> 30	–	> 30	> 30	> 30	> 30
CN[C@@H]1[C@H](O)[C@H](NC)[C@H]2O[C@@]3(O)C(=O)C[C@@H](C)O[C@H]3O[C@@H]2[C@H]1O [SPECTINOMYCIN]	> 30	> 30	> 10	> 10	> 10	> 10	–	> 10	> 10	> 10	> 10
Cc1c(Cl)cccc1Nc1ccccc1C(=O)O [TOLFENAMIC ACID]	> 30	> 30	–	> 30	> 30	> 30	15	0.6	> 30	> 30	> 30
COc1ccc(C(=O)N2CCN(c3ccc4c(c3)CCC(=O)N4)CC2)cc1OC [VESNARINONE]	8.46	> 30	–	> 30	> 30	> 30	> 30	> 30	> 30	> 30	> 30
CC[C@]1(O)C[C@@H]2CN(CCc3c([nH]c4ccccc34)[C@@](C(=O)OC)(c3cc4c(cc3OC)N(C)[C@H]3[C@@](O)(C(N)=O)[C@H](O)[C@]5(CC)C=CCN6CC[C@]43[C@@H]65)C2)C1 [VINDESINE]	> 30	> 30	> 30	6.5	> 30	> 30	–	25	> 30	> 30	> 30

— ChEMBL document CHEMBL5291721, “A preclinical secondary pharmacology resource illuminates target-adverse drug reaction associations of marketed drugs” (Nat Commun, 2023)
